{"source": "patent US6953570B2", "about": "“Porphyrins with enhanced multi-photon absorption cross-sections for photodynamic therapy” (Montana State University, priority 2001, dated 2005)", "test": "Singlet oxygen 1Δg→3Σg luminescence after two-photon excitation of the photosensitizer", "type": "physicochemical", "details": "air-saturated toluene solution, Ti:sapphire regenerative amplifier output 780 nm", "procedure": "As illustrated in FIG. 4(a), the ^1Δg→^3Σg luminescence spectra of molecular oxygen in an air-saturated toluene solution of compound I after both one- and two-photon excitation were measured. The one-photon excitation is represented by the dashed line and the two-photon excitation is shown by the solid line. Both spectra are normalized to unity. For one photon excitation, second harmonics of a Ti:sapphire regenerative amplifier, 390 nm, with an average power intensity of 0.5 W/cm^2 were used, while for two-photon excitation, the output of a Ti:sapphire regenerative amplifier, 780 nm, with an average power intensity of 15 W/cm^2 was used. In both cases, the laser beam was slightly focused into a 1-cm cell to give a cylindrical irradiated volume of ˜1.5 mm diameter. The singlet oxygen luminescence spectrum was measured with a nitrogen-cooled Ge detector coupled with Jobin-Yvon monochromator and a lock-in amplifier.\nFIG. 4(b) graphs the dependence of the ^1Δg→^3Σg luminescence intensity (lΔ) on the average illumination intensity, P, of molecular oxygen in an air-saturated toluene solution of compound I after two-photon excitation. The raw experimental data are shown by black squares, with the best power-law fit, lΔ=aP^n with n=2.1±0.1 shown by the dotted line."}
{"smiles": "Clc1cccc(Cl)c1-c1c2nc(cc3ccc([nH]3)c(-c3ccc(C=Cc4ccc(N(c5ccccc5)c5ccccc5)cc4)cc3)c3nc(cc4ccc1[nH]4)C=C3)C=C2", "note": "[Compound I, 5-[4′″-(diphenylamino)-4″-stilbenyl]-15-[2′,6′-dichlorophenyl]-21H, 23H-porphyrin]", "values": [{"measurement": "exponent n of best power-law fit lΔ=aP^n (1Δg→3Σg luminescence intensity lΔ versus average illumination intensity P)", "result": "2.1±0.1"}]}
